Like-named read-outs stand apart in the source and are kept apart here.
System: Per2-Luc reporter U2OS cells (D15)
Experiment: Circadian phase shift cell assay in D15 cells, 384 well plate, Tecan, with or without pentostatin
Format: cell-based, human
Details: for minimal effective concentration: read-out: Cell Assay; for With Pentostadin Cell Assay: pentostatin 5 μg/ml; for period effect / amplitude effect, Per2:luc signal versus control: under the concentration of 100 μM
[1] = Homo sapiens, U2OS, without pentostatin, concentration that shifts the circadian phase
[2] = concentration that shifts the circadian phase
[3] = without pentostatin, concentration that shifts the circadian phase

## Nc1ncnc2c1c(Br)c(Br)n2[C@@H]1O[C@H](CO)[C@H](O)[C@H]1O
[1]
  minimal effective concentration: > 500 µM
[2]
  With Pentostadin Cell Assay: 100 µM

## Nc1ncnc2c1c(Br)cn2[C@@H]1O[C@H](CO)[C@H](O)[C@H]1O [NQZ-168]
  period effect: elongation period effect

## Nc1ncnc2c1c(F)cn2[C@H]1O[C@H](CO)[C@H](O)[C@H]1O
[1]
  minimal effective concentration: > 500 µM
[2]
  With Pentostadin Cell Assay: 100 µM

## [2H]c1nc(N)c2nc([2H])n([C@@H]3O[C@H](CO)[C@H](O)[C@H]3O)c2n1 [drawing 353]
[1]
  minimal effective concentration: 12.5 µM
[2]
  With Pentostadin Cell Assay: 25 µM

## COc1nc(N)c2ncn([C@@H]3O[C@H](CO)C(O)C3O)c2n1 (stereo partly shown)
[1]
  minimal effective concentration: > 500 µM
[2]
  With Pentostadin Cell Assay: 100 µM

## Nc1ncnc2c1ccn2[C@@H]1O[C@H](CO)C(O)C1O (stereo partly shown) [drawing 318]
[2]
  With Pentostadin Cell Assay: 25 µM

## Nc1ncnc2c1ncn2[C@@H]1O[C@H](COP(=O)(O)OP(=O)(O)OP(=O)(O)O)CC1O (stereo partly shown)
[1]
  minimal effective concentration: 100 µM

## Cc1cccc(Cc2nn(C(C)(C)C)c3ncnc(N)c23)c1
[1]
  minimal effective concentration: 10 µM

## Nc1ncnc2c1c(Br)cn2[C@@H]1O[C@H](CO)C[C@H]1O [drawing 349]
[1]
  minimal effective concentration: > 500 µM
[2]
  With Pentostadin Cell Assay: 100 µM

## Nc1cc(Cl)nc2c1ncn2[C@@H]1O[C@H](CO)C(O)C1O (stereo partly shown)
[1]
  minimal effective concentration: > 500 µM
[2]
  With Pentostadin Cell Assay: 100 µM

## CNc1nc2c(=O)[nH]c(N)nc2n1[C@@H]1O[C@H](CO)C(O)C1O (stereo partly shown)
[1]
  minimal effective concentration: 100 µM

## Nc1ncnc2c1ncn2[C@@H]1O[C@H](COC(=O)CCCC[C@@H]2SC[C@@H]3NC(=O)N[C@@H]32)CC1O (stereo partly shown) [drawing 316]
[3]
  minimal effective concentration: 200 µM

## OC[C@H]1O[C@@H](n2cnc3c(NCc4ccccc4)ncnc32)C(O)C1O (stereo partly shown)
[1]
  minimal effective concentration: 10 µM
[2]
  With Pentostadin Cell Assay: 10 µM

## OC[C@H]1O[C@@H](n2c(F)nc3c(F)nc(F)nc32)[C@H](O)[C@H]1O [NQZ-195]
  period effect: elongation period effect

## COc1cc2c(N)ncnc2n1[C@@H]1O[C@H](CO)[C@H](O)[C@H]1O
[1]
  minimal effective concentration: > 500 µM
[2]
  With Pentostadin Cell Assay: 100 µM

## Nc1ncnc2c1c(I)cn2[C@@H]1O[C@H](CO)C(O)C1O (stereo partly shown)
Homo sapiens, U2OS
  minimal effective concentration: 0.3 µM

## Nc1ncnc2c1c(F)cn2[C@@H]1O[C@H](CO)[C@H](O)[C@H]1O
[1]
  minimal effective concentration: > 500 µM
[2]
  With Pentostadin Cell Assay: 100 µM

## OC[C@H]1O[C@@H](n2cnc3c(Cl)cc(Cl)nc32)C(O)C1O (stereo partly shown)
[1]
  minimal effective concentration: 100 µM

## Nc1ncnc2c1c(Br)c(Br)n2[C@@H]1O[C@H](CO)C[C@H]1O
[1]
  minimal effective concentration: > 500 µM
[2]
  With Pentostadin Cell Assay: 100 µM

## [2H]c1nc(N)c2nc([2H])n([C@@H]3O[C@H](CO)C[C@H]3O)c2n1
[1]
  minimal effective concentration: 25 µM
[2]
  With Pentostadin Cell Assay: 12.5 µM

## Nc1ncnc2c1ncn2[C@H]1CC[C@@H](CO)O1
[1]
  minimal effective concentration: 200 µM

## Nc1ncnc2c1ncn2[C@@H]1O[C@@H]2COC2[C@H]1O (stereo partly shown)
[1]
  minimal effective concentration: > 500 µM
[2]
  With Pentostadin Cell Assay: 100 µM

## Nc1ncnc2c1ncn2[C@@H]1O[C@H](CO)[C@H](O)[C@H]1O [NQZ-007, 9-(β-D-xylofuranosyl)-adenine]
Pentostatin containing medium (5 μg/ml)
  concentration of eliciting 12 h phase shift (potency): 0.2 µM
Without pentostatin
  concentration of eliciting 12 h phase shift (potency): 25 µM

## Nc1ncnc2c1c(Br)cn2[C@H]1O[C@H](CO)C[C@H]1O
[1]
  minimal effective concentration: > 500 µM
[2]
  With Pentostadin Cell Assay: 200 µM

## Nc1ncnc2c1ncn2[C@@H]1O[C@H](COC(=O)CCCC[C@@H]2SC[C@@H]3NC(=O)N[C@@H]32)CC1OC(=O)CCCC[C@@H]1SC[C@@H]2NC(=O)N[C@@H]21 (stereo partly shown)
[1]
  minimal effective concentration: > 500 µM
[2]
  With Pentostadin Cell Assay: 12.5 µM

## Nc1ncnc2c1ccn2[C@@H]1OC[C@@H](O)[C@H](O)[C@H]1O
[1]
  minimal effective concentration: 100 µM

## Nc1ncnc2c1nc(Br)n2[C@@H]1O[C@H](CO)[C@H](O)[C@H]1O
[1]
  minimal effective concentration: > 500 µM
[2]
  With Pentostadin Cell Assay: 100 µM

## Nc1ncnc2c1cc(Br)n2[C@@H]1O[C@H](CO)C[C@H]1O
[1]
  minimal effective concentration: > 500 µM
[2]
  With Pentostadin Cell Assay: 100 µM

## Nc1ncnc2c1ncn2[C@@H]1O[C@H](COC(=O)CCCC[C@@H]2SC[C@@H]3NC(=O)N[C@@H]32)C(O)C1O (stereo partly shown)
[1]
  minimal effective concentration: > 500 µM
[2]
  With Pentostadin Cell Assay: 2 µM

## Nc1ncnc2c1ncn2[C@@H]1O[C@H](CO)[C@H](OC(=O)CCCC[C@@H]2SC[C@@H]3NC(=O)N[C@@H]32)[C@H]1O
[1]
  minimal effective concentration: > 500 µM
[2]
  With Pentostadin Cell Assay: 25 µM

## C#CC(O)C1O[C@@H](n2cnc3c(N)ncnc32)[C@H](O)[C@H]1O (stereo partly shown)
[1]
  minimal effective concentration: > 500 µM
[2]
  With Pentostadin Cell Assay: 100 µM

## Nc1nccc2c1ncn2[C@@H]1O[C@H](CO)[C@H](O)[C@H]1O
[1]
  minimal effective concentration: > 500 µM
[2]
  With Pentostadin Cell Assay: 100 µM

## [N-]=[N+]=NC[C@@H]1CC(O)[C@H](n2cnc3c(N)ncnc32)O1 (stereo partly shown)
[1]
  minimal effective concentration: 500 µM
[2]
  With Pentostadin Cell Assay: 25 µM

## Nc1ncnc2c1ncn2[C@@H]1O[C@H]([C@H](O)CO)[C@H](O)[C@H]1O
[1]
  minimal effective concentration: > 500 µM
[2]
  With Pentostadin Cell Assay: 200 µM

## O=P(O)(O)OP(=O)(O)OP(=O)(O)OC[C@H]1O[C@@H](n2cnc3c(NCc4ccccc4)ncnc32)[C@H](O)[C@@H]1O
[1]
  minimal effective concentration: 10 µM

## CNC(=O)c1cnn(-c2nc(N)c3ncn([C@@H]4O[C@H](CO)C(O)C4O)c3n2)c1 (stereo partly shown)
[1]
  minimal effective concentration: 100 µM

## Nc1ncnc2c1ncn2[C@@H]1O[C@H](COC(=O)CCCC[C@@H]2SC[C@@H]3NC(=O)N[C@@H]32)C(O)C1OC(=O)CCCC[C@@H]1SC[C@@H]2NC(=O)N[C@@H]21 (stereo partly shown)
[1]
  minimal effective concentration: > 500 µM
[2]
  With Pentostadin Cell Assay: 25 µM

## Nc1ncnc2c1ncn2[C@@H]1O[C@H](CO)C(O)C1OC(=O)CCCC[C@@H]1SC[C@@H]2NC(=O)N[C@@H]21 (stereo partly shown)
[1]
  minimal effective concentration: > 500 µM
[2]
  With Pentostadin Cell Assay: 2 µM

## Nc1ncnc2c1ncn2[C@@H]1O[C@H](COP(=O)(O)O)CC1O (stereo partly shown)
[1]
  minimal effective concentration: 100 µM

## Nc1nccc2c1ncn2[C@@H]1O[C@H](CO)C(O)C1O (stereo partly shown)
[1]
  minimal effective concentration: 50 µM
[2]
  With Pentostadin Cell Assay: 50 µM

## Nc1nc(F)nc2c1nc(F)n2[C@@H]1O[C@H](CO)[C@H](O)[C@H]1O
[1]
  minimal effective concentration: > 500 µM
[2]
  With Pentostadin Cell Assay: 200 µM

## C=C[C@@H]1CC(O)[C@H](n2cnc3c(N)ncnc32)O1 (stereo partly shown)
[1]
  minimal effective concentration: 200 µM
[2]
  With Pentostadin Cell Assay: 25 µM

## Nc1ncnc2c1ncn2[C@@H]1O[C@H](COC(=O)CCCC[C@@H]2SC[C@@H]3NC(=O)N[C@@H]32)CC1O (stereo partly shown) [drawing 290]
[2]
  With Pentostadin Cell Assay: 6 µM
[3]
  minimal effective concentration: >500 µM

## CCCCCCCC(=O)Nc1ncnc2c1ncn2[C@@H]1O[C@H](CO)[C@H](O)[C@H]1O [NQZ-163]
  amplitude effect, Per2:luc signal versus control: more than two fold of control

## Nc1ncnc2c1ncn2[C@@H]1O[C@H](CO)CC1OC(=O)CCCC[C@@H]1SC[C@@H]2NC(=O)N[C@@H]21 (stereo partly shown)
[1]
  minimal effective concentration: > 500 µM
[2]
  With Pentostadin Cell Assay: 1.5 µM

## CC1(CCC(=O)O[C@@H]2[C@@H](O)[C@H](n3cnc4c(N)ncnc43)O[C@@H]2COC(=O)CCCC(=O)NCCCOCCOCCOCCCNC(=O)CCCC[C@H]2SC[C@H]3NC(=O)N[C@H]32)N=N1
[1]
  minimal effective concentration: > 500 µM
[2]
  With Pentostadin Cell Assay: 100 µM

## O=C1N[C@H]2[C@H](CS[C@H]2CCCCC(=O)OC[C@H]2O[C@@H](n3cnc4cc(Cl)c(Cl)cc43)C(O)C2O)N1 (stereo partly shown)
[1]
  minimal effective concentration: 40 µM

## Nc1nc(N)c2ncn([C@@H]3O[C@H](CO)C(O)C3O)c2n1 (stereo partly shown)
[1]
  minimal effective concentration: > 500 µM
[2]
  With Pentostadin Cell Assay: 100 µM

## O=C(CCCC[C@@H]1SC[C@@H]2NC(=O)N[C@@H]21)Nc1ncnc2c1ncn2[C@@H]1O[C@H](CO)CC1O (stereo partly shown) [drawing 315]
[3]
  minimal effective concentration: 200 µM

## Nc1ncnc2c1ncn2[C@@H]1O[C@@H]2COP(=O)(O)OC2C1O (stereo partly shown)
Homo sapiens, U2OS
  minimal effective concentration: 200 µM

## Nc1ncnc2c1ccn2[C@@H]1O[C@H](CO)C(O)C1O (stereo partly shown) [drawing 303]
[1]
  minimal effective concentration: 0.3 µM
[2]
  With Pentostadin Cell Assay: 0.3 µM

## CC1(CCC(=O)O[C@@H]2[C@H](O)[C@@H](COC(=O)CCCC(=O)NCCCOCCOCCOCCCNC(=O)CCCC[C@H]3SC[C@H]4NC(=O)N[C@H]43)O[C@H]2n2cnc3c(N)ncnc32)N=N1
[1]
  minimal effective concentration: > 500 µM
[2]
  With Pentostadin Cell Assay: 100 µM

## Nc1nc2c([nH]c(=S)n2[C@@H]2O[C@H](CO)C(O)C2O)c(=O)[nH]1 (stereo partly shown)
[1]
  minimal effective concentration: 100 µM

## Nc1ncnc2c1c(Br)cn2[C@H]1O[C@H](CO)[C@H](O)[C@H]1O
[1]
  minimal effective concentration: > 500 µM
[2]
  With Pentostadin Cell Assay: 50 µM

## Nc1nc(NC2CC2)c2ncn([C@H]3C=C[C@@H](CO)O3)c2n1
[1]
  minimal effective concentration: 400 µM

## Nc1ncnc2c1ncn2[C@@H]1O[C@H](CO)C2OC21 (stereo partly shown)
[1]
  minimal effective concentration: 3 µM

## O=C(CCCC[C@@H]1SC[C@@H]2NC(=O)N[C@@H]21)Nc1ncnc2c1ncn2[C@@H]1O[C@H](CO)CC1O (stereo partly shown) [drawing 292]
[2]
  With Pentostadin Cell Assay: 25 µM
[3]
  minimal effective concentration: >500 µM

## Nc1ncnc2c1c(Br)cn2[C@@H]1O[C@H](CO)[C@H](O)[C@H]1O [drawing 333]
[1]
  minimal effective concentration: > 500 µM
[2]
  With Pentostadin Cell Assay: 100 µM

## Nc1ncnc2c1c(F)c(Br)n2[C@@H]1O[C@H](CO)[C@H](O)[C@H]1O
[1]
  minimal effective concentration: > 500 µM
[2]
  With Pentostadin Cell Assay: 100 µM

## OC[C@H]1O[C@@H](n2cnc3cc(Cl)c(Cl)cc32)C(O)C1O (stereo partly shown) [drawing 289]
[1]
  minimal effective concentration: 10 µM
[2]
  With Pentostadin Cell Assay: 10 µM

## Nc1ncnc2c1cc(Br)n2[C@@H]1O[C@H](CO)[C@H](O)[C@H]1O
[1]
  minimal effective concentration: > 500 µM
[2]
  With Pentostadin Cell Assay: 100 µM

## Nc1ncnc2c1ncn2[C@@H]1O[C@H](C2NN2)CC1O (stereo partly shown)
Homo sapiens, U2OS
  minimal effective concentration: > 500 µM
[2]
  With Pentostadin Cell Assay: 100 µM

## OC[C@H]1O[C@@H](n2cnc3cc(Cl)c(Cl)cc32)C(O)C1O (stereo partly shown) [drawing 284]
[3]
  minimal effective concentration: 10 µM

## Nc1ncnc2c1c(Br)cn2[C@@H]1O[C@H](CO)C[C@H]1O [NQZ-194]
  amplitude effect, Per2:luc signal versus control: more than two fold of control

## OC[C@H]1O[C@@H](n2cnc3c(NC4CC4)ncnc32)C(O)C1O (stereo partly shown)
[1]
  minimal effective concentration: 100 µM

From patent US12667584B2, “Adenosine analog and its use in regulating the circadian clock” (NATIONAL INSTITUTE OF BIOLOGICAL SCIENCES, BEIJING, priority 2017, dated 2026)
